The values below come from PMC2765504 (Journal of natural products, 2009).

This test deals with T1, EncN (Streptomyces maritimus, UniProt Q9KHK1).
T1 sequence (Q9KHK1 1-522): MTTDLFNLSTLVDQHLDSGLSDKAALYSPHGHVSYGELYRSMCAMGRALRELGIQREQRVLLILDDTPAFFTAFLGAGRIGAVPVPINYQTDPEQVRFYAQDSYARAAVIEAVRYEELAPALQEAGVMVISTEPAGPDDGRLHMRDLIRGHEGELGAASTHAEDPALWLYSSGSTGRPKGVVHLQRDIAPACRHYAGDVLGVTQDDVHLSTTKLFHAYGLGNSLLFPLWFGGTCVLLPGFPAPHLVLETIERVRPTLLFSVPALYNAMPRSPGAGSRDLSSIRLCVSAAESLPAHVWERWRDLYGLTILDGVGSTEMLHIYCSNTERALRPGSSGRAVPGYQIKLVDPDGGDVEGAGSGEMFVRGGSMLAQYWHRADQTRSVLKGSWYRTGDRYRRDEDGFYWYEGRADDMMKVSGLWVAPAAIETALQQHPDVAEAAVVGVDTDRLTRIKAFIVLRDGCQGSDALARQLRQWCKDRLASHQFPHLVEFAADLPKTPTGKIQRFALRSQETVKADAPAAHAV
T1 sequence (Q9KHK4 1-82 partner): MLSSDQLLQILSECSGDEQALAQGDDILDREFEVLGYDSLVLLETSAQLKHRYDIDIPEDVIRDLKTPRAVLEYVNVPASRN
Nature of the test: FTMS of acyl loading on holo-EncC. The class given is biochemical. As to conditions: ATP 10 mM, EncN 2 uM, holo-EncC 20 uM.

`O=C(O)c1ccccc1` [benzoic acid]: the “FTMS of acyl loading on holo-EncC” value (benzoic acid 10 mM) is given as “Upon incubation with EncN, benzoate was transferred in typical nonribosomal peptide synthetase fashion”.
With `O=C(O)c1ccccc1O` [salicylic acid], the “FTMS of acyl loading on holo-EncC” value (benzoic acid omitted) is “in its absence, EncN preferentially activates and loads salicylate”.
